Measurements as given in ChEMBL document CHEMBL4138123, “Design, synthesis and biological evaluation of novel pyrazolochalcones as potential modulators of PI3K/Akt/mTOR pathway and inducers of apoptosis in breast cancer cells” (Eur J Med Chem, 2017).

Legend:
Format in all cases: functional
CCRF-CEM = test: Cytotoxicity against human CCRF-CEM cells assessed as cell growth at 10 uM after 48 hrs by sulforhodamine B assay relative to control; conditions: read-out: Activity
786-0 = test: Cytotoxicity against human 786-0 cells assessed as cell growth at 100 uM after 48 hrs by sulforhodamine B assay relative to control; conditions: 786-0, 48 h, read-out: Activity
NCI/ADR-RES = test: Cytotoxicity against human NCI/ADR-RES cells assessed as cell growth at 1 uM after 48 hrs by sulforhodamine B assay relative to control; conditions: read-out: Activity
MOLT-4 = test: Cytotoxicity against human MOLT4 cells assessed as cell growth at 10 uM after 48 hrs by sulforhodamine B assay relative to control; conditions: MOLT-4, 48 h, read-out: Activity
TK-10 = test: Cytotoxicity against human TK10 cells assessed as cell growth at 1 uM after 48 hrs by sulforhodamine B assay relative to control; conditions: TK-10, 48 h, read-out: Activity
MDA-MB-231 = test: Cytotoxicity against human MDA-MB-231 cells assessed as cell growth at 10 uM after 48 hrs by sulforhodamine B assay relative to control; conditions: MDA-MB-231, 48 h, read-out: Activity
UACC-62 [1] = test: Cytotoxicity against human UACC62 cells assessed as cell growth at 10 uM after 48 hrs by sulforhodamine B assay relative to control; conditions: UACC-62, 48 h, read-out: Activity
RPMI-8226 = test: Cytotoxicity against human RPMI8226 cells assessed as cell growth at 100 uM after 48 hrs by sulforhodamine B assay relative to control; conditions: RPMI-8226, 48 h, read-out: Activity
SN12C = test: Cytotoxicity against human SN12C cells assessed as cell growth at 0.1 uM after 48 hrs by sulforhodamine B assay relative to control; conditions: read-out: Activity
OVCAR-8 [2] = test: Cytotoxicity against human OVCAR8 cells assessed as cell growth at 1 uM after 48 hrs by sulforhodamine B assay relative to control; conditions: OVCAR-8, 48 h, read-out: Activity
HL-60(TB) = test: Cytotoxicity against human HL-60(TB) cells assessed as cell growth at 100 uM after 48 hrs by sulforhodamine B assay relative to control; conditions: HL-60, 48 h, read-out: Activity
NCI-H23 = test: Cytotoxicity against human NCI-H23 cells assessed as cell growth at 0.1 uM after 48 hrs by sulforhodamine B assay relative to control; conditions: NCI-H23, 48 h, read-out: Activity
SK-MEL-28 = test: Cytotoxicity against human SK-MEL-28 cells assessed as growth inhibition after 48 hrs by sulforhodamine B assay; conditions: SK-MEL-28, 48 h
OVCAR-4 [3] = test: Cytotoxicity against human OVCAR4 cells assessed as cell growth at 100 uM after 48 hrs by sulforhodamine B assay relative to control; conditions: OVCAR-4, 48 h, read-out: Activity
OVCAR-8 [4] = test: Cytotoxicity against human OVCAR8 cells assessed as cell growth at 100 uM after 48 hrs by sulforhodamine B assay relative to control; conditions: OVCAR-8, 48 h, read-out: Activity
SK-OV-3 = test: Cytotoxicity against human SKOV3 cells assessed as cell growth at 1 uM after 48 hrs by sulforhodamine B assay relative to control; conditions: SK-OV-3, 48 h, read-out: Activity
PC-3 [5] = test: Cytotoxicity against human PC3 cells assessed as cell growth at 0.01 uM after 48 hrs by sulforhodamine B assay relative to control; conditions: PC-3, 48 h, read-out: Activity
NCI-H322M [6] = test: Cytotoxicity against human NCI-H322M cells assessed as cell growth at 0.1 uM after 48 hrs by sulforhodamine B assay relative to control; conditions: read-out: Activity
HCT-15 = test: Cytotoxicity against human HCT15 cells assessed as growth inhibition after 48 hrs by sulforhodamine B assay; conditions: HCT-15, 48 h
K562 = test: Cytotoxicity against human K562 cells assessed as cell growth at 0.01 uM after 48 hrs by sulforhodamine B assay relative to control; conditions: K562, 48 h, read-out: Activity
SK-MEL-5 = test: Cytotoxicity against human SK-MEL-5 cells assessed as cell growth at 10 uM after 48 hrs by sulforhodamine B assay relative to control; conditions: SK-MEL-5, 48 h, read-out: Activity
RXF 393 = test: Cytotoxicity against human RXF393 cells assessed as cell growth at 10 uM after 48 hrs by sulforhodamine B assay relative to control; conditions: RXF 393, 48 h, read-out: Activity
DU-145 [7] = test: Cytotoxicity against human DU145 cells assessed as cell growth at 0.1 uM after 48 hrs by sulforhodamine B assay relative to control; conditions: DU-145, 48 h, read-out: Activity
HCC 2998 = test: Cytotoxicity against human HCC2998 cells assessed as cell growth at 0.1 uM after 48 hrs by sulforhodamine B assay relative to control; conditions: HCC 2998, 48 h, read-out: Activity
SF-539 = test: Cytotoxicity against human SF539 cells assessed as cell growth at 0.1 uM after 48 hrs by sulforhodamine B assay relative to control; conditions: SF-539, 48 h, read-out: Activity
HCT-116 [8] = test: Cytotoxicity against human HCT116 cells assessed as cell growth at 1 uM after 48 hrs by sulforhodamine B assay relative to control; conditions: HCT-116, 48 h, read-out: Activity
NCI-H226 = test: Cytotoxicity against human NCI-H226 cells assessed as cell growth at 10 uM after 48 hrs by sulforhodamine B assay relative to control; conditions: NCI-H226, 48 h, read-out: Activity
UACC-62 [9] = test: Cytotoxicity against human UACC62 cells assessed as cell growth at 0.01 uM after 48 hrs by sulforhodamine B assay relative to control; conditions: UACC-62, 48 h, read-out: Activity
MDA-MB-435 = test: Cytotoxicity against human MDA-MB-435 cells assessed as cell growth at 10 uM after 48 hrs by sulforhodamine B assay relative to control; conditions: MDA-MB-435, 48 h, read-out: Activity
NCI-H322M [10] = test: Cytotoxicity against human NCI-H322M cells assessed as cell growth at 0.01 uM after 48 hrs by sulforhodamine B assay relative to control; conditions: read-out: Activity
MDA-MB-468 = test: Cytotoxicity against human MDA-MB-468 cells assessed as cell growth at 100 uM after 48 hrs by sulforhodamine B assay relative to control; conditions: MDA-MB-468, 48 h, read-out: Activity
DU-145 [11] = test: Cytotoxicity against human DU145 cells assessed as cell growth at 100 uM after 48 hrs by sulforhodamine B assay relative to control; conditions: DU-145, 48 h, read-out: Activity
PC-3 [12] = test: Cytotoxicity against human PC3 cells assessed as cell growth at 1 uM after 48 hrs by sulforhodamine B assay relative to control; conditions: PC-3, 48 h, read-out: Activity
OVCAR-4 [13] = test: Cytotoxicity against human OVCAR4 cells assessed as cell growth at 0.1 uM after 48 hrs by sulforhodamine B assay relative to control; conditions: OVCAR-4, 48 h, read-out: Activity
HCT-116 [14] = test: Cytotoxicity against human HCT116 cells assessed as growth inhibition after 48 hrs by sulforhodamine B assay; conditions: HCT-116, 48 h

COc1cc(-c2cc(/C=C/C(=O)c3ccc4c(c3)OCO4)[nH]n2)cc(OC)c1OC
growth at 10 µM (CCRF-CEM): -19% | growth at 100 µM (786-0): -30% | growth at 1 µM (NCI/ADR-RES): 96% | growth at 10 µM (MOLT-4): -4% | growth at 1 µM (TK-10): 97% | growth at 10 µM (MDA-MB-231): 20% | growth at 10 µM (UACC-62 [1]): 26% | growth at 100 µM (RPMI-8226): -37% | growth at 0.1 µM (SN12C): 96% | growth at 1 µM (OVCAR-8 [2]): 91% | growth at 100 µM (HL-60(TB)): -36% | growth at 0.1 µM (NCI-H23): 93% | LC50 (SK-MEL-28): > 100 µM | TGI (SK-MEL-28): 7.34 µM | growth at 100 µM (OVCAR-4 [3]): 3% | growth at 100 µM (OVCAR-8 [4]): -33% | growth at 1 µM (SK-OV-3): 102% | growth at 0.01 µM (PC-3 [5]): 100% | growth at 0.1 µM (NCI-H322M [6]): 95% | LC50 (HCT-15): > 100 µM | TGI (HCT-15): 7.19 µM | growth at 0.01 µM (K562): 100% | growth at 10 µM (SK-MEL-5): 26% | growth at 10 µM (RXF 393): -95% | growth at 0.1 µM (DU-145 [7]): 102% | growth at 0.1 µM (HCC 2998): 102% | growth at 0.1 µM (SF-539): 99% | growth at 1 µM (HCT-116 [8]): 90% | growth at 10 µM (NCI-H226): 14% | growth at 0.01 µM (UACC-62 [9]): 98% | growth at 10 µM (MDA-MB-435): -15% | growth at 0.01 µM (NCI-H322M [10]): 94% | growth at 100 µM (MDA-MB-468): -85% | growth at 100 µM (DU-145 [11]): -15% | growth at 1 µM (PC-3 [12]): 86% | growth at 0.1 µM (OVCAR-4 [13]): 92%

COc1ccc(C(=O)/C=C/c2cc(-c3cc(OC)c(OC)c(OC)c3)n[nH]2)cc1OC
growth at 10 µM (CCRF-CEM): -26% | growth at 100 µM (786-0): -84% | growth at 1 µM (NCI/ADR-RES): 90% | growth at 10 µM (MOLT-4): -30% | growth at 1 µM (TK-10): 71% | growth at 10 µM (MDA-MB-231): -82% | growth at 10 µM (UACC-62 [1]): -92% | growth at 100 µM (RPMI-8226): -41% | growth at 0.1 µM (SN12C): 94% | growth at 1 µM (OVCAR-8 [2]): 69% | growth at 100 µM (HL-60(TB)): -51% | growth at 0.1 µM (NCI-H23): 94% | LC50 (SK-MEL-28): 6.25 µM | TGI (SK-MEL-28): 3.34 µM | growth at 100 µM (OVCAR-4 [3]): -82% | growth at 100 µM (OVCAR-8 [4]): -96% | growth at 1 µM (SK-OV-3): 100% | growth at 0.01 µM (PC-3 [5]): 96% | growth at 0.1 µM (NCI-H322M [6]): 101% | LC50 (HCT-15): 6.4 µM | TGI (HCT-15): 2.85 µM | growth at 0.01 µM (K562): 96% | growth at 10 µM (SK-MEL-5): -98% | growth at 10 µM (RXF 393): -98% | growth at 0.1 µM (DU-145 [7]): 101% | growth at 0.1 µM (HCC 2998): 88% | growth at 0.1 µM (SF-539): 98% | growth at 1 µM (HCT-116 [8]): 47% | growth at 10 µM (NCI-H226): -81% | growth at 0.01 µM (UACC-62 [9]): 98% | growth at 10 µM (MDA-MB-435): -92% | TGI (HCT-116 [14]): 2.63 µM | growth at 0.01 µM (NCI-H322M [10]): 94% | growth at 100 µM (MDA-MB-468): -87% | growth at 100 µM (DU-145 [11]): -89% | growth at 1 µM (PC-3 [12]): 71% | growth at 0.1 µM (OVCAR-4 [13]): 96%

COc1ccc(-c2cc(/C=C/C(=O)c3ccc(N)cc3)[nH]n2)cc1
growth at 10 µM (CCRF-CEM): -27% | growth at 100 µM (786-0): -57% | growth at 1 µM (NCI/ADR-RES): 85% | growth at 10 µM (MOLT-4): -2% | growth at 1 µM (TK-10): 81% | growth at 10 µM (MDA-MB-231): -7% | growth at 10 µM (UACC-62 [1]): -89% | growth at 100 µM (RPMI-8226): -67% | growth at 0.1 µM (SN12C): 94% | growth at 1 µM (OVCAR-8 [2]): 76% | growth at 100 µM (HL-60(TB)): -47% | growth at 0.1 µM (NCI-H23): 94% | GI50 (SK-MEL-28): 1870 nM | LC50 (SK-MEL-28): 8.57 µM | TGI (SK-MEL-28): 4.01 µM | growth at 100 µM (OVCAR-4 [3]): -68% | growth at 100 µM (OVCAR-8 [4]): -41% | growth at 1 µM (SK-OV-3): 105% | growth at 0.01 µM (PC-3 [5]): 95% | growth at 0.1 µM (NCI-H322M [6]): 89% | GI50 (HCT-15): 1000 nM | LC50 (HCT-15): 34.9 µM | TGI (HCT-15): 3.62 µM | growth at 0.01 µM (K562): 98% | growth at 10 µM (SK-MEL-5): -3% | growth at 10 µM (RXF 393): -47% | growth at 0.1 µM (DU-145 [7]): 100% | growth at 0.1 µM (HCC 2998): 98% | growth at 0.1 µM (SF-539): 97% | growth at 1 µM (HCT-116 [8]): 67% | growth at 10 µM (NCI-H226): -29% | growth at 0.01 µM (UACC-62 [9]): 96% | growth at 10 µM (MDA-MB-435): -16% | GI50 (HCT-116 [14]): 1380 nM | TGI (HCT-116 [14]): 3.61 µM | growth at 0.01 µM (NCI-H322M [10]): 95% | growth at 100 µM (MDA-MB-468): -51% | growth at 100 µM (DU-145 [11]): -100% | growth at 1 µM (PC-3 [12]): 81% | growth at 0.1 µM (OVCAR-4 [13]): 105%
